Experimental data as given in US5594009A, “Fused pyrrolocarbazoles” (priority 1995, dated 1997).

What was measured:
[1] = tested on: ChAT activity of basal forebrain cultures; assay: Basal Forebrain ChAT Activity Assay; format: cell-based, rat
Outline: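 Basal forebrain neurons from E17–18 rat embryos were Dispase-dissociated and plated at 5×10^4 cells/well on poly-ornithine/laminin. Cultures were kept in serum-free N2 medium with 0.05% BSA at 37° C. ChAT activity was measured 5 days after plating as the read-out for compound-induced increase.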

[2] = tested on: chick dorsal root ganglion neurons; assay: DRG Neurite Outgrowth Assay; format: cell-based; conditions: compound concentration 200 nM; 48 hours
Experimental: Fused pyrrolocarbazoles promoted nerve fiber (i.e., neurite) outgrowth in explant (i.e., primary) cultures of chick dorsal root ganglion neurons. Dorsal root ganglion (i.e., DRG) nerve fiber outgrowth was increased when a fused pyrrolocarbazole was added to cultures at a concentration of 200 nM (Table IV). Control cultures consisted of: 1) no added NGF or fused pyrrolocarbazole ("Control"), or 2) 50 ng/ml NGF, a neurotrophin known to promote neurite extension in DRG cultures ("NGF").
Methods: Dorsal root ganglia were dissected from chick embryos (embryonic day 9) and individual ganglia were plated on poly-1-ornithine and laminin coated plates. A fused pyrrolocarbazole or 50ng/ml NGF was each added to independent cultures after allowing a 1-2 hour cell attachment period. Explants were cultured for 48 hours in serum-free N2 medium supplemented with 0.05% BSA (Bottenstein et al., PNAS USA 76:514-517 (1979)). Cultures were maintained at 37° C. in a humidified atmosphere, 5% CO2 /95% air. Nerve fiber outgrowth was assessed by the density and length of neurites. It should be apparent to those skilled in the art that neurite extension assays are semi-quantitative and involve a visual comparison between control and experimental neuronal cell cultures (Alberts et al., Molecular Biology of the Cell, 2ed. Garland Publishing, Inc., New York (1989).

[3] = tested on: choline acetyltransferase (ChAT) activity in dissociated rat embryonic spinal cord culture; assay: Spinal Cord ChAT Activity Assay; format: cell-based; conditions: ChAT measured after 48 hours
AT-2 cells = assay: Inhibition of Growth of Prostate Cancer Cell Line (MTS assay); format: cell-based; conditions: 72 h; 3 days, MTS; read-out: AT-2 cell growth IC50
Outline: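 AT-2 rat Dunning prostate cancer cells were plated in RPMI-1640 with 10% FCS and 250 nM dexamethasone; compounds added next day, initially at 10–0.01 μM, then at 3 or more concentrations near the IC50. Cell number was measured 3 days later by MTS/PMS reduction (A490).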

protein kinase C = assay: PKC Activity Inhibition Assay; format: biochemical
Experimental: Fused pyrrolocarbazoles inhibited the activity of protein kinase C (Table VI). The protein kinase C assay has been disclosed (Murakata et al., U.S. Pat. No. 4,923,986; Kikkawa et al., J. Biol. Chem. 257:13341-13348 (1982)). The assay was performed with several concentrations of fused pyrrolocarbazoles. The concentration at which protein kinase C was 50% inhibited (IC50) was determined.

Compound: O=C1NCc2c1c1c(c3[nH]c4ccccc4c23)Cc2ccccc2-1 [Compound I-2]
- ChAT Activity (% of Control) ([1]; 100 nM): inactive
- ChAT Activity (% of Control) ([1]; 1000 nM): inactive
- activity at 0.25 µM ([1]; Rattus norvegicus, 120 h, 250 nM, read-out: ChAT Activity (% of Control)): 137%
- activity at 0.5 µM ([1]; Rattus norvegicus, 120 h, 500 nM, read-out: ChAT Activity (% of Control)): 137%
- DRG Neurite Outgrowth [2]: modest to dense outgrowth of neurites
- Spinal Cord ChAT Activity, % of Control, untreated cultures [3]: 160 % of Control
- IC50 (AT-2 cells): 4600 nM
- IC50 (protein kinase C): 110 nM
